Source: PMC3895407 (Journal of medicinal chemistry, 2013)
Marks after values point to notes of the source that are not given here.

Experiments:
[1] = system: WEEV replicon; type: cell-based, western equine encephalitis virus
[2] = in vitro; conditions: PAMPA, pH 7.4
[3] = in vitro
[4] = system: Fort Morgan virus (FMV); type: cell-based
[5] = Table 3; BBB lipid mixture, pH 7.4
[6] = system: Fort Morgan virus (FMV); conditions: 25 µM
[7] = system: western equine encephalitis virus (WEEV); conditions: cited from earlier work
[8] = relative to lead compound 3
[9] = system: cell viability (cellular reduction of MTT)
[10] = system: western equine encephalitis virus (WEEV); conditions: 25 µM

O=C(NCc1cccnc1)C1CCN(C(=O)c2cc3ccccc3n2Cc2ccc(Cl)cc2)CC1 [compound 5]
Fold loss in activity in WEEV replicon assay [1]: 2 fold

O=C(NCCc1ccncc1)C1CCN(C(=O)c2cc(F)cn2Cc2ccc(Cl)cc2)CC1 [29k, 1-(1-(4-Chlorobenzyl)-4-fluoro-1H-pyrrole-2-carbonyl)-N-(2-(pyridin-4-yl)ethyl)piperidine-4-carboxamide]
Papp [2]: 12.6 ×10⁻⁶ cm/s

Cn1cnc(CNC(=O)C2CCN(C(=O)c3cc4ccccc4n3Cc3ccc(Cl)cc3)CC2)c1 [27f, 1-(1-(4-Chlorobenzyl)-1H-indole-2-carbonyl)-N-((1-methyl-1H-imidazol-4-yl)methyl)piperidine-4-carboxamide]
CC50 [3]: > 50 µM

C[C@@H](NC(=O)C1CCN(C(=O)c2cc3ccccc3n2Cc2ccc(Cl)cc2)CC1)c1ccncc1 [27b, (R)-1-(1-(4-Chlorobenzyl)-1H-indole-2-carbonyl)-N-(1-(pyridin-4-yl)ethyl)piperidine-4-carboxamide]
Papp [2]: 95.5 ×10⁻⁶ cm/s

CN(Cc1ccccc1)C(=O)C1CCN(C(=O)c2cc3ccccc3n2Cc2ccc([N+](=O)[O-])cc2)CC1 [28b, N-Benzyl-N-methyl-1-(1-(4-nitrobenzyl)-1H-indole-2-carbonyl)piperidine-4-carboxamide]
CC50 [3]: > 100 µM

CC(=O)n1c(C(=O)N2CCC(C(=O)N(C)Cc3ccccc3)CC2)cc2ccccc21 [28e, 1-(1-Acetyl-1H-indole-2-carbonyl)-N-benzyl-N-methylpiperidine-4-carboxamide]
CC50 [3]: > 50 µM | Papp [2]: 9.77 ×10⁻⁶ cm/s

O=C(NCCc1ccncc1)C1CCN(C(=O)c2cc3ccccc3n2Cc2ccc(Cl)cc2)CC1 [27g, 1-(1-(4-Chlorobenzyl)-1H-indole-2-carbonyl)-N-(2-(pyridin-4-yl)ethyl)piperidine-4-carboxamide]
Fold increase in potency in WEEV replicon assay [1]: 10 fold | Reduction of viral titers compared with 3 [4]: approximately ten-fold more than 3 | BBB-PAMPA (log Peff) [5]: -4.18 ± 0.06 cm/s | FMV Viability (% uninfected control) [6]: 71.9 ± 1.9 % uninfected control | Papp [2]: 66.1 ×10⁻⁶ cm/s

O=C(NCCc1ccncc1)C1CCN(C(=O)c2cccn2Cc2ccc(Cl)cc2)CC1 [29a, 1-(1-(4-Chlorobenzyl)-1H-pyrrole-2-carbonyl)-N-(2-(pyridin-4-yl)ethyl)piperidine-4-carboxamide]
FMV Viability (% uninfected control) [6]: 63.0 ± 5.9 % uninfected control | CC50 [3]: > 100 µM | Papp [2]: 9.77 ×10⁻⁶ cm/s

O=C(NCCc1ccncc1)C1CCN(C(=O)c2cc3cc(F)ccc3n2Cc2ccc(Cl)cc2)CC1 [29i, 1-(1-(4-Chlorobenzyl)-5-fluoro-1H-indole-2-carbonyl)-N-(2-(pyridin-4-yl)ethyl)piperidine-4-carboxamide]
Papp [2]: 77.6 ×10⁻⁶ cm/s

O=C(NCCc1ccncc1)C1CCN(C(=O)NCCc2ccc(Cl)cc2)CC1 [29d, N1-(4-Chlorophenethyl)-N4-(2-(pyridin-4-yl)ethyl)piperidine-1,4-dicarboxamide]
CC50 [3]: > 100 µM | Papp [2]: 14.1 ×10⁻⁶ cm/s

COc1cccc(CCNC(=O)C2CCN(C(=O)c3cc4ccccc4n3Cc3ccc(Cl)cc3)CC2)c1 [27p, 1-(1-(4-Chlorobenzyl)-1H-indole-2-carbonyl)-N-(3-methoxyphenethyl)piperidine-4-carboxamide]
CC50 [3]: > 100 µM

O=C(NCCc1ccncc1)C1CCN(C(=O)c2cc3ccc(F)cc3n2Cc2ccc(Cl)cc2)CC1 [29h, 1-(1-(4-Chlorobenzyl)-6-fluoro-1H-indole-2-carbonyl)-N-(2-(pyridin-4-yl)ethyl)piperidine-4-carboxamide]
Reduction of viral titers compared with 3 [4]: approximately ten-fold more than 3

COCCn1c(C(=O)N2CCC(C(=O)N(C)Cc3ccccc3)CC2)cc2ccccc21 [28f, N-Benzyl-1-(1-(2-methoxyethyl)-1H-indole-2-carbonyl)-N-methylpiperidine-4-carboxamide]
CC50 [3]: > 50 µM | Papp [2]: 40.7 ×10⁻⁶ cm/s

CN(CCc1ccncc1)C(=O)C1CCN(C(=O)c2cc3ccccc3n2Cc2ccc(Cl)cc2)CC1 [27m, 1-(1-(4-Chlorobenzyl)-1H-indole-2-carbonyl)-N-methyl-N-(2-(pyridin-4-yl)ethyl)piperidine-4-carboxamide]
Fold diminished potency in WEEV replicon assay [1]: 3 fold | Papp [2]: 61.7 ×10⁻⁶ cm/s

CN1CCC(CNC(=O)C2CCN(C(=O)c3cc4ccccc4n3Cc3ccc(Cl)cc3)CC2)CC1 [27d, 1-(1-(4-Chlorobenzyl)-1H-indole-2-carbonyl)-N-((1-methylpiperidin-4-yl)methyl)piperidine-4-carboxamide]
CC50 [3]: > 50 µM

Cn1ccc(CNC(=O)C2CCN(C(=O)c3cc4ccccc4n3Cc3ccc(Cl)cc3)CC2)n1 [27e, 1-(1-(4-Chlorobenzyl)-1H-indole-2-carbonyl)-N-((1-methyl-1H-pyrazol-3-yl)methyl)piperidine-4-carboxamide]
CC50 [3]: > 100 µM

CN(Cc1ccccc1)C(=O)C1CCN(C(=O)c2cc3ccccc3n2Cc2ccc(C#N)cc2)CC1 [28c, N-Benzyl-1-(1-(4-cyanobenzyl)-1H-indole-2-carbonyl)-N-methylpiperidine-4-carboxamide]
CC50 [3]: > 100 µM | Papp [2]: 53.7 ×10⁻⁶ cm/s

O=C(NCCc1ccncc1)C1CCN(C(=O)c2cc3ccncc3n2Cc2ccc(Cl)cc2)CC1 [29j, 1-(1-(4-Chlorobenzyl)-1H-pyrrolo[2,3-c]pyridine-2-carbonyl)-N-(2-(pyridin-4-yl)ethyl)piperidine-4-carboxamide]
Papp [2]: 3.02 ×10⁻⁶ cm/s

C[C@@H](NC(=O)C1CCN(C(=O)c2cc3ccccc3n2Cc2ccc(Cl)cc2)CC1)c1ccccc1 [compound 3]
FMV Viability (% uninfected control) [6]: 47.4 ± 8.0 % uninfected control | WEEV Titer [7]: 8.8 ± 1.0* x10^6 pfu/mL | CC50 [3]: > 100 µM | Papp [2]: 0.302 ×10⁻⁶ cm/s

CC(NC(=O)C1CCN(C(=O)c2cc3ccccc3n2Cc2ccc(Cl)cc2)CC1)c1ccncc1 (stereo not drawn) [27a, 1-(1-(4-Chlorobenzyl)-1H-indole-2-carbonyl)-N-(1-(pyridin-4-yl)ethyl)piperidine-4-carboxamide]
Fold improvement of activity in WEEV replicon assay [1]: about 3 fold | Reduction of viral titers compared with 3 [4]: approximately ten-fold more than 3 | FMV Viability (% uninfected control) [6]: 68.2 ± 2.4 % uninfected control | Papp [2]: 102 ×10⁻⁶ cm/s

O=C(NCCc1ccncc1)C1CCN(C(=O)c2nc3ccccc3n2Cc2ccc(Cl)cc2)CC1 [29c, 1-(1-(4-Chlorobenzyl)-1H-benzo[d]imidazole-2-carbonyl)-N-(2-(pyridin-4-yl)ethyl)piperidine-4-carboxamide]
Fold increase in half-life in mouse liver microsomes [8]: 20-35 fold | Papp [2]: 31.6 ×10⁻⁶ cm/s

CN(C)C(=O)C1CCN(C(=O)c2cc3ccccc3n2Cc2ccc(Cl)cc2)CC1 [27v, 1-(1-(4-Chlorobenzyl)-1H-indole-2-carbonyl)-N,N-dimethylpiperidine-4-carboxamide]
CC50 [3]: > 100 µM | Papp [2]: 64.6 ×10⁻⁶ cm/s

O=C(NCc1ccncc1)C1CCN(C(=O)c2cc3ccccc3n2Cc2ccc(Cl)cc2)CC1 [compound 4]
CC50 [3]: > 100 µM | Papp [2]: 69.2 ×10⁻⁶ cm/s

O=C(c1cc2ccccc2n1Cc1ccc(Cl)cc1)N1CCC(C(=O)N2CCOCC2)CC1 [27x, (1-(4-Chlorobenzyl)-1H-indol-2-yl)(4-(morpholine-4-carbonyl)piperidin-1-yl)methanone]
CC50 [3]: > 100 µM

O=C(NCCn1ccnc1)C1CCN(C(=O)c2cc3ccccc3n2Cc2ccc(Cl)cc2)CC1 [27o, N-(2-(1H-Imidazol-1-yl)ethyl)-1-(1-(4-chlorobenzyl)-1H-indole-2-carbonyl)piperidine-4-carboxamide]
Papp [2]: 1.74 ×10⁻⁶ cm/s

1-(1-(4-Chlorobenzyl)-1H-indole-2-carbonyl)-N-(2-methyl-2-(pyridin-4-yl)propyl)piperidine-4-carboxamide [27l]
IC50 ([1]; read-out: IC50 (inhibition of luciferase expression in WEEV replicon assay)): 19.3 ± 21 µM | CC50 [9]: 43.6 µM

O=C(NCCc1ccncc1)C1CCN(C(=O)c2nccn2Cc2ccc(Cl)cc2)CC1 [29b, 1-(1-(4-Chlorobenzyl)-1H-imidazole-2-carbonyl)-N-(2-(pyridin-4-yl)ethyl)piperidine-4-carboxamide]
CC50 [3]: > 50 µM | Papp [2]: 8.71 ×10⁻⁶ cm/s

O=C(NCCCc1ccncc1)C1CCN(C(=O)c2cc3ccccc3n2Cc2ccc(Cl)cc2)CC1 [27j, 1-(1-(4-Chlorobenzyl)-1H-indole-2-carbonyl)-N-(3-(pyridin-4-yl)propyl)piperidine-4-carboxamide]
Fold decrease in potency in WEEV replicon assay [1]: 5 fold | Papp [2]: 77.6 ×10⁻⁶ cm/s

NC(=O)c1ncn([C@@H]2O[C@H](CO)[C@@H](O)[C@H]2O)n1 [Ribavirin]
WEEV Viability (% uninfected control) [10]: 35.3 ± 1.0 % uninfected control

O=C(NCCc1ccncc1)C1CCN(C(=O)c2cc3ccccc3n2Cc2ccccc2)CC1 [29f, 1-(1-Benzyl-1H-indole-2-carbonyl)-N-(2-(pyridin-4-yl)ethyl)piperidine-4-carboxamide]
Fold increase in half-life in mouse liver microsomes [8]: 20-35 fold

Cn1c(C(=O)N2CCC(C(=O)NCCc3ccncc3)CC2)cc2ccccc21 [29e, 1-(1-Methyl-1H-indole-2-carbonyl)-N-(2-(pyridin-4-yl)ethyl)piperidine-4-carboxamide]
CC50 [3]: > 50 µM
